Paper PMC7029851, “Antibacterial activity of novel dual bacterial DNA type II topoisomerase inhibitors” (PLoS ONE, 2020)
In brackets after ≈: the same amount, converted by molar mass. Counter-ions that a name gives are not always drawn. Like-named read-outs stand apart in the source and are kept apart here.

Tests used:
[1] = system: E. faecalis clinical isolates (n = 12) vanA (6)/vanB (6); assay: MIC, multidrug-resistant clinical isolates; format: cell-based; details: Enterococcus faecalis; for MIC: read-out: MIC range
Method: (§1) The bacterial reference strains used in this study were purchased from ATCC (American Type Culture Collection) via LGC Standards (Middlesex, UK). […] Clinical MDR isolates were provided by Aptuit, the IHMA Europa Sàrl repository (Epalinges, Switzerland) and the Statens Serum Institute (Copenhagen, Denmark).
(§2) MICs were determined by the broth microdilution method (the agar dilution method was used only for N. gonorrhoeae) according to CLSI guidelines.
(§3) The results obtained using clinical isolates are reported as MIC50 and MIC90 values.

[2] = system: E. faecium clinical isolates (n = 12) vanA (6)/vanB (6); assay: MIC, multidrug-resistant clinical isolates; format: cell-based; details: Enterococcus faecium; for MIC: read-out: MIC range
Method: as §1, §2, §3

[3] = system: E. coli clinical isolates (n = 36); assay: MIC, multidrug-resistant clinical isolates; format: cell-based, Escherichia coli; details: E. coli MDR clinical isolates (n = 36)
Method: as §1, §2, §3

[4] = system: C. difficile clinical isolates (n = 21); assay: MIC, multidrug-resistant clinical isolates; format: cell-based, Clostridium difficile; details: Clostridioides difficile, C. difficile clinical isolates (n = 21); for MIC: read-out: MIC range; for MIC50: read-out: MIC50; for MIC90: read-out: MIC90
Method: as §1, §2, §3

[5] = system: N. gonorrhoeae clinical isolates (n = 38); assay: microbe, parasite or virus in culture; format: cell-based, Neisseria gonorrhoeae
Method: as §1, §2, §3

[6] = Escherichia coli, read-out: MIC50
[7] = Escherichia coli, read-out: MIC90

Work on CC(=O)NC[C@H]1CN(c2ccc(N3CCOCC3)c(F)c2)C(=O)O1 [linezolid, reference compound] yielded an MIC50 [1] of 2 µg/mL (≈ 5.93 µM), an MIC90 [1] of 2 µg/mL (≈ 5.93 µM) and an MIC [1] of 1 to 2 µg/mL (≈ 2.96 to 5.93 µM). For the same molecule, the MIC50 [2] was 2 µg/mL (≈ 5.93 µM), the MIC90 [2] was 2 µg/mL (≈ 5.93 µM) and the MIC [2] was 2 µg/mL (≈ 5.93 µM).
CNC(C)C1CCC(N)C(OC2C(N)CC(N)C(OC3OCC(C)(O)C(NC)C3O)C2O)O1 (stereo not shown) [gentamicin, gentamicin sulfate] showed an MIC50 [3, 6] of 2 µg/mL and an MIC90 [3, 7] of 32 µg/mL.
In the case of colistin sulfate, the MIC50 [3] is reported as 0.5 µg/mL and the MIC90 [3] is reported as 0.5 µg/mL.
CCc1c(Cl)c(O)c(Cl)c(O)c1C(=O)O[C@H]1[C@H](O)[C@H](OC)[C@H](OC/C2=C\C=C\C[C@H](O)/C(C)=C/[C@H](CC)[C@@H](O[C@@H]3OC(C)(C)[C@@H](OC(=O)C(C)C)[C@H](O)[C@@H]3O)/C(C)=C/C(C)=C/C[C@@H]([C@@H](C)O)OC2=O)O[C@@H]1C [fidaxomicin, reference compound] was tested, and the MIC [4] was 0.03 to 1 µg/mL (≈ 0.0284 to 0.945 µM).
For CCC[C@@H]1C[C@@H](C(=O)N[C@@H]([C@H]2O[C@H](SC)[C@H](O)[C@@H](O)[C@H]2O)[C@H](C)Cl)N(C)C1 [clindamycin, clindamycin hydrochloride, reference compound], the MIC50 [4] was 8 µg/mL, the MIC90 [4] was 32 µg/mL and the MIC [4] was 4 to 32 µg/mL.
In the case of CC1(C)S[C@@H]2[C@H](NC(=O)[C@H](N)c3ccccc3)C(=O)N2[C@H]1C(=O)O [ampicillin, reference compound], the MIC50 [1] is reported as 2 µg/mL (≈ 5.72 µM), the MIC90 [1] is reported as 2 µg/mL (≈ 5.72 µM) and the MIC [1] is reported as 1 to 4 µg/mL (≈ 2.86 to 11.4 µM). For the same molecule, the MIC50 [2] was over 64 µg/mL, the MIC90 [2] was over 64 µg/mL and the MIC [2] was over 64 µg/mL. The MIC50 [3, 6] was over 64 µg/mL and the MIC90 [3, 7] was over 64 µg/mL.
CO/N=C(\C(=O)N[C@@H]1C(=O)N2C(C(=O)O)=C(CSc3nc(=O)c(=O)[nH]n3C)CS[C@H]12)c1csc(N)n1 [ceftriaxone, ceftriaxone sodium, reference compound] showed an MIC range [3] of 0.03 to 32 µg/mL, an MIC50 [3, 6] of 1 µg/mL and an MIC90 [3, 7] of 32 µg/mL. It also gave an MIC range [5] of at most 2 to 120 ng/mL, an MIC50 ([5]; Neisseria gonorrhoeae) of 0.012 µg/mL and an MIC90 ([5]; Neisseria gonorrhoeae) of 0.094 µg/mL.
For C[C@@H](O)[C@H]1C(=O)N2C(C(=O)O)=C(SCCN=CN)C[C@H]12 [imipenem, imipenem monohydrate, reference compound], the MIC50 [4] was 8 µg/mL, the MIC90 [4] was 16 µg/mL and the MIC [4] was 2 to 16 µg/mL. The MIC ([3]; Escherichia coli) was 0.06 to 16 µg/mL, the MIC50 [3, 6] was 0.12 µg/mL and the MIC90 [3, 7] was 4 µg/mL.
CC1(C)S[C@@H]2[C@H](NC(=O)Cc3ccccc3)C(=O)N2[C@H]1C(=O)O [penicillin, penicillin G potassium, reference compound] was tested, and the MIC50 [1] was 4 µg/mL, the MIC90 [1] was 8 µg/mL and the MIC [1] was 2 to 16 µg/mL. For the same molecule, the MIC50 [2] was over 64 µg/mL, the MIC90 [2] was over 64 µg/mL and the MIC [2] was over 64 µg/mL.
